Measurements published in DBAASP.
Values after ≈ are worked out from the molar mass of the structure shown. Values belong to the compound of their own block, whether it stands above or below them.

Columns and labels:
Assay in all cases: ≥ marks a high value that may be exact or a test limit, other limits are often not marked, values filed in µg/mL are converted to µM
[1] = system: Candida albicans NCYC 1467
[2] = system: Escherichia coli NCTC 10418
[3] = system: Staphylococcus aureus NCTC 10788
[4] = system: Staphylococcus aureus NCTC 12493
[5] = system: Pseudomonas aeruginosa ATCC 27853
[6] = system: Staphylococcus aureus ATCC 43300
[7] = system: Staphylococcus aureus ATCC BAA-1556
Escherichia coli JW0013 = system: Escherichia coli JW0013
[8] = system: Escherichia coli ATCC 25922
Acinetobacter baumannii = system: Acinetobacter baumannii
[9] = system: Acinetobacter baumannii ATCC 19606
Staphylococcus aureus MR = system: Staphylococcus aureus MR
[10] = system: Staphylococcus aureus ATCC 29213
[11] = system: Staphylococcus aureus ATCC 25923
[12] = system: Candida albicans ATCC 90028
Staphylococcus aureus = system: Staphylococcus aureus
[13] = system: Bacillus subtilis CMCC 63501
[14] = system: Enterococcus faecalis ATCC 29212
[15] = system: Salmonella enterica subsp. enterica serovar Typhimurium ATCC 14028
[16] = system: Salmonella enterica subsp. enterica serovar Pullorum C79-13
Escherichia coli UB1005 = system: Escherichia coli UB1005
[17] = system: Staphylococcus epidermidis ATCC 12228

- MIC [1]: 10.9 µM (≈ 32 µg/mL)
- MIC [2]: 5.46 µM (≈ 16 µg/mL)
- MIC [3]: 5.46 µM (≈ 16 µg/mL)
- MIC [4]: 21.8 µM (≈ 64 µg/mL)
- MIC [5]: 21.8 µM (≈ 64 µg/mL)
- MIC [6]: 10.9 µM (≈ 32 µg/mL)
SMILES: CSCC[C@H](NC(=O)[C@H](CC(=O)O)NC(=O)[C@@H](NC(=O)[C@@H](NC(=O)[C@H](C)NC(=O)[C@H](CC(N)=O)NC(=O)[C@H](CC(C)C)NC(=O)[C@H](C)NC(=O)[C@H](C)NC(=O)[C@H](CCCCN)NC(=O)CNC(=O)[C@H](C)NC(=O)[C@H](C)NC(=O)[C@H](CCCCN)NC(=O)CNC(=O)[C@@H](NC(=O)[C@H](CC(N)=O)NC(=O)[C@H](CCCCN)NC(=O)[C@H](Cc1ccccc1)NC(=O)[C@H](CC(C)C)NC(=O)[C@H](CO)NC(=O)[C@H](CCCCN)NC(=O)[C@H](Cc1c[nH]c2ccccc12)NC(=O)[C@H](CC(C)C)NC(=O)CN)C(C)C)C(C)C)[C@@H](C)O)C(=O)N[C@H](C(=O)N[C@@H](CC(N)=O)C(=O)N[C@@H](CCC(N)=O)C(N)=O)C(C)C [GLWKSLFKNVGKAAGKAALNAVTDMVNQ]

- MIC [7]: ≥ 100 µM
SMILES: CC(C)C[C@H](NC(=O)[C@H](CC(C)C)NC(=O)[C@H](CC(C)C)NC(=O)[C@H](CC(C)C)NC(=O)[C@H](CC(C)C)NC(=O)[C@H](CC(C)C)NC(=O)[C@H](CC(C)C)NC(=O)[C@@H](N)CCCCN)C(=O)N[C@@H](CCCCN)C(N)=O [KLLLLLLLK]

- MIC (Escherichia coli JW0013): 0.3 µM (≈ 0.615 µg/mL)
SMILES: CC[C@H](C)[C@H](NC(=O)[C@H](CCCN=C(N)N)NC(=O)[C@@H](N)CCCCN)C(=O)N[C@@H](CCCN=C(N)N)C(=O)N1CCC[C@H]1C(=O)N[C@@H](CCCN=C(N)N)C(=O)N1CCC[C@H]1C(=O)N1CCC[C@H]1C(=O)N[C@@H](CCCN=C(N)N)C(=O)N[C@@H](CC(C)C)C(=O)N1CCC[C@H]1C(=O)N[C@@H](CCCN=C(N)N)C(=O)N1CCC[C@H]1C(=O)N[C@@H](CCCN=C(N)N)C(=O)N1CCC[C@H]1C(=O)N[C@@H](CCCN=C(N)N)C(=O)O [KRIRPRPPRLPRPRPR]

- MIC [8]: 1.25 µM (≈ 1.96 µg/mL)
- MIC (Acinetobacter baumannii): ≥ 50.9 µM
- MIC [9]: ≥ 102 µM
- MIC (Staphylococcus aureus MR): ≥ 204 µM
- MIC [10]: 2.5 µM (≈ 3.93 µg/mL)
- MIC [11]: ≥ 204 µM
- MIC [5]: 2.5 µM (≈ 3.93 µg/mL)
- MIC [12]: 2.5 µM (≈ 3.93 µg/mL)
SMILES: CC[C@H](C)[C@H](NC(=O)[C@H](CCCN=C(N)N)NC(=O)[C@H](CCCCN)NC(=O)[C@@H](NC(=O)[C@@H](NC(=O)[C@H](CCCN=C(N)N)NC(=O)[C@@H](N)CCCCN)[C@@H](C)CC)C(C)C)C(=O)N[C@@H](CCCCN)C(=O)N[C@@H](CC(=O)O)C(=O)N[C@@H](Cc1ccccc1)C(=O)N[C@@H](CC(C)C)C(=O)N[C@@H](CCCN=C(N)N)C(=O)O [KRIVKRIKDFLR]

- MIC [7]: ≥ 100 µM
SMILES: CC(C)C[C@H](NC(=O)[C@H](CC(C)C)NC(=O)[C@H](CC(C)C)NC(=O)[C@H](CCCCN)NC(=O)[C@H](CC(C)C)NC(=O)[C@H](CC(C)C)NC(=O)[C@H](CC(C)C)NC(=O)[C@H](CCCCN)NC(=O)[C@@H](N)CC(C)C)C(N)=O [LKLLLKLLL]

- MIC [7]: ≥ 100 µM
SMILES: CC(C)C[C@H](NC(=O)[C@H](CCCCN)NC(=O)[C@H](CC(C)C)NC(=O)[C@H](CC(C)C)NC(=O)[C@H](CC(C)C)NC(=O)[C@H](CC(C)C)NC(=O)[C@H](CC(C)C)NC(=O)[C@@H](N)CC(C)C)C(=O)N[C@@H](CCCCN)C(N)=O [LLLLLLKLK]

- MIC (Staphylococcus aureus MR): 24 µM (≈ 64 µg/mL)
SMILES: CC[C@H](C)[C@H](NC(=O)[C@H](Cc1ccc(O)cc1)NC(=O)[C@H](CCCN=C(N)N)NC(=O)[C@H](CCCCN)NC(=O)[C@H](Cc1ccc(O)cc1)NC(=O)[C@@H](N)CC(C)C)C(=O)N[C@@H](CC(C)C)C(=O)N[C@@H](CCCN=C(N)N)C(=O)N[C@@H](CCCCN)C(=O)N[C@@H](Cc1ccccc1)C(=O)N[C@@H](CCCCN)C(=O)N[C@@H](Cc1ccccc1)C(=O)N[C@@H](CC(C)C)C(=O)N[C@@H](CCCCN)C(=O)N[C@@H](CCCCN)C(=O)N[C@@H](CCCCN)C(=O)N[C@@H](CC(C)C)C(=O)N[C@@H](CCCCN)C(=O)N[C@@H](CCCCN)C(=O)N[C@@H](CCCCN)C(N)=O [LYKRYILRKFKFLKKKLKKK]

- MIC (Staphylococcus aureus MR): ≥ 66.3 µM
- MIC (Staphylococcus aureus): > 66.3 µM
SMILES: CC(C)C[C@H](NC(=O)[C@@H](N)CCCN=C(N)N)C(=O)N[C@@H](C)C(=O)N[C@@H](CCCN=C(N)N)C(=O)N[C@@H](CCCN=C(N)N)C(=O)N[C@H](C(=O)N[C@H](C(=O)N[C@@H](CCCN=C(N)N)C(=O)N[C@@H](CCCN=C(N)N)C(=O)N[C@H](C(=O)N[C@@H](C)C(=O)N[C@@H](CCCN=C(N)N)C(N)=O)C(C)C)C(C)C)C(C)C [RLARRVVRRVAR]

- MIC (Escherichia coli JW0013): 0.3 µM (≈ 0.694 µg/mL)
SMILES: CC[C@H](C)[C@H](NC(=O)[C@@H]1CCCN1C(=O)[C@H](CCCCN)NC(=O)[C@@H]1CCCN1C(=O)[C@@H]1CCCN1C(=O)[C@@H](NC(=O)[C@@H]1CCCN1C(=O)[C@H](CCCN=C(N)N)NC(=O)[C@@H]1CCCN1C(=O)[C@H](CC(C)C)NC(=O)[C@H](Cc1ccc(O)cc1)NC(=O)[C@H](CO)NC(=O)CNC(=O)[C@H](CCCCN)NC(=O)[C@H](CC(=O)O)NC(=O)[C@@H](N)C(C)C)[C@@H](C)O)C(=O)N[C@@H](Cc1ccc(O)cc1)C(=O)N[C@@H](CC(N)=O)C(=O)N[C@@H](CCCN=C(N)N)C(=O)N[C@@H](CC(N)=O)C(=O)O [VDKGSYLPRPTPPKPIYNRN]

- MIC (Escherichia coli JW0013): 0.3 µM (≈ 0.715 µg/mL)
SMILES: CC[C@H](C)[C@H](NC(=O)[C@@H]1CCCN1C(=O)[C@H](CCCN=C(N)N)NC(=O)[C@@H]1CCCN1C(=O)[C@@H]1CCCN1C(=O)[C@@H](NC(=O)[C@@H]1CCCN1C(=O)[C@H](CCCN=C(N)N)NC(=O)[C@@H]1CCCN1C(=O)[C@H](CCCN=C(N)N)NC(=O)[C@H](Cc1ccc(O)cc1)NC(=O)[C@H](CO)NC(=O)CNC(=O)[C@H](CCCCN)NC(=O)[C@H](CC(=O)O)NC(=O)[C@@H](N)C(C)C)[C@@H](C)O)C(=O)N[C@@H](Cc1ccc(O)cc1)C(=O)N[C@@H](CC(N)=O)C(=O)N[C@@H](CCCN=C(N)N)C(=O)N[C@@H](CC(N)=O)C(=O)O [VDKGSYRPRPTPPRPIYNRN]

- MIC [8]: 4 µM (≈ 5.98 µg/mL)
- MIC [13]: 8 µM (≈ 12 µg/mL)
- MIC [14]: 32 µM (≈ 47.8 µg/mL)
- MIC [15]: 32 µM (≈ 47.8 µg/mL)
- MIC [16]: 8 µM (≈ 12 µg/mL)
- MIC [10]: 8 µM (≈ 12 µg/mL)
- MIC (Escherichia coli UB1005): 4 µM (≈ 5.98 µg/mL)
- MIC [5]: 16 µM (≈ 23.9 µg/mL)
- MIC [17]: 16 µM (≈ 23.9 µg/mL)
SMILES: C[C@H](NC(=O)[C@H](C)NC(=O)[C@H](CCCCN)NC(=O)[C@H](C)NC(=O)[C@H](C)NC(=O)[C@H](C)NC(=O)[C@H](CCCCN)NC(=O)[C@H](Cc1ccccc1)NC(=O)[C@@H](N)Cc1c[nH]c2ccccc12)C(=O)N[C@@H](C)C(=O)N[C@@H](CCCCN)C(=O)N[C@@H](Cc1ccccc1)C(=O)N[C@@H](Cc1c[nH]c2ccccc12)C(N)=O [WFKAAAKAAAKFW]

- MIC [7]: ≥ 100 µM
SMILES: CC(C)C[C@H](NC(=O)[C@H](CC(C)C)NC(=O)[C@H](CCCCN)NC(=O)[C@H](CC(C)C)NC(=O)[C@H](CC(C)C)NC(=O)[C@@H](N)Cc1c[nH]c2ccccc12)C(N)=O [WLLKLL]

- MIC [13]: 8 µM (≈ 15.4 µg/mL)
- MIC [15]: 8 µM (≈ 15.4 µg/mL)
- MIC [16]: 2 µM (≈ 3.85 µg/mL)
- MIC (Escherichia coli UB1005): 4 µM (≈ 7.7 µg/mL)
- MIC [11]: 8 µM (≈ 15.4 µg/mL)
- MIC [5]: 8 µM (≈ 15.4 µg/mL)
- MIC [6]: 4 µM (≈ 7.7 µg/mL)
- MIC [17]: 16 µM (≈ 30.8 µg/mL)
SMILES: CC(=O)N[C@@H](Cc1c[nH]c2ccccc12)C(=O)N[C@@H](CCCN=C(N)N)C(=O)N[C@@H](CCCCN)C(=O)N[C@@H](CC(C)C)C(=O)N[C@@H](Cc1c[nH]c2ccccc12)C(=O)N[C@@H](CCCN=C(N)N)C(=O)NCC(=O)NCC(=O)N[C@@H](CC(C)C)C(=O)N[C@@H](CCCCN)C(=O)N[C@@H](CCCN=C(N)N)C(=O)N[C@@H](Cc1c[nH]c2ccccc12)C(=O)N[C@@H](CC(C)C)C(=O)N[C@@H](CCCCN)C(N)=O [WRKLWRGGLKRWLK]

- MIC [7]: 3.12 µM (≈ 4.51 µg/mL)
SMILES: CC(C)C[C@H](NC(=O)[C@H](Cc1c[nH]c2ccccc12)NC(=O)[C@H](Cc1c[nH]c2ccccc12)NC(=O)[C@H](CC(C)C)NC(=O)[C@H](CCCN=C(N)N)NC(=O)[C@H](Cc1c[nH]c2ccccc12)NC(=O)[C@H](CC(C)C)NC(=O)[C@H](Cc1c[nH]c2ccccc12)NC(=O)[C@@H](N)Cc1c[nH]c2ccccc12)C(N)=O [WWLWRLWWL]
